From patent US20260102359A1, “COMBINATION TREATMENT OF DERMAL AND TRANSDERMAL FIBROTIC DISEASES, DISORDERS AND ASSOCIATED PAIN AND INFLAMMATION” (ERESINA, LLC, priority 2022, published 2026)
Counter-ions that a name gives are not always drawn.

System: hDMFa myofibroblast cells

O=C(N/N=C/c1ccc([N+](=O)[O-])o1)c1ccc(O)cc1 [Cmpd 711, Nifuroxazide]
Compound Myofibroblast Cytotoxicity Activity: ++

Cc1cn(-c2cc(NC(=O)c3ccc(C)c(Nc4nccc(-c5cccnc5)n4)c3)cc(C(F)(F)F)c2)cn1 [Cmpd 712, Nilotinib monohydrochloride monohydrate]
Compound Myofibroblast Cytotoxicity Activity: +++

CC1(C)NC(=O)N(c2ccc([N+](=O)[O-])c(C(F)(F)F)c2)C1=O [Cmpd 714, Nilutamide]
Compound Myofibroblast Cytotoxicity Activity: ++++

COC(=O)C1=C(C#N)NC(C)=C(C(=O)OC(C)C)C1c1cccc([N+](=O)[O-])c1 (centres unmarked) [Cmpd 715, Nilvadipine]
Compound Myofibroblast Cytotoxicity Activity: +++

COC(=O)c1ccc2c(c1)NC(=O)/C2=C(\Nc1ccc(N(C)C(=O)CN2CCN(C)CC2)cc1)c1ccccc1 [Cmpd 716, Nintedanib (BIBF 1120)]
Compound Myofibroblast Cytotoxicity Activity: ++++

COC(=O)C1=C(C)NC(C)=C(C(=O)OCC(C)C)C1c1ccccc1[N+](=O)[O-] (centres unmarked) [Cmpd 717, Nisoldipine]
Compound Myofibroblast Cytotoxicity Activity: +++

CC(=O)Oc1ccccc1C(=O)Nc1ncc([N+](=O)[O-])s1 [Cmpd 718, Nitazoxanide]
Compound Myofibroblast Cytotoxicity Activity: +++

CCOC(=O)C1=C(C)NC(C)=C(C(=O)OC)C1c1cccc([N+](=O)[O-])c1 (centres unmarked) [Cmpd 719, Nitrendipine]
Compound Myofibroblast Cytotoxicity Activity: +++

O=C1CN(/N=C/c2ccc([N+](=O)[O-])o2)C(=O)N1 [Cmpd 720, Nitrofurantoin]
Compound Myofibroblast Cytotoxicity Activity: ++++

CC(Cc1ccc(O)c(O)c1)C(C)Cc1ccc(O)c(O)c1 (centres unmarked) [Cmpd 722, Nordihydroguaiaretic acid]
Compound Myofibroblast Cytotoxicity Activity: +++

CNCCC=C1c2ccccc2CCc2ccccc21 [Cmpd 723, Nortriptyline (hydrochloride)]
Compound Myofibroblast Cytotoxicity Activity: ++

CO[C@@H]1[C@@H](OC(N)=O)[C@@H](O)[C@H](Oc2ccc3c(O)c(NC(=O)c4ccc(O)c(CC=C(C)C)c4)c(=O)oc3c2C)OC1(C)C [Cmpd 724, Novobiocin Sodium]
Compound Myofibroblast Cytotoxicity Activity: ++++

CCCCCCCC(=O)O [Cmpd 729, Octanoic acid]
Compound Myofibroblast Cytotoxicity Activity: ++

CCCCCCCC/C=C\CCCCCCCC(=O)O [Cmpd 733, Oleic Acid]
Compound Myofibroblast Cytotoxicity Activity: +++

C=CC(=O)Nc1cccc(Oc2nc(Nc3ccc(N4CCN(C)CC4)cc3)nc3ccsc23)c1 [Cmpd 735, Olmutinib (HM61713, BI1482694)]
Compound Myofibroblast Cytotoxicity Activity: ++++

COc1ccc2[n-]c([S+]([O-])Cc3ncc(C)c(OC)c3C)nc2c1.[Na+] (centres unmarked) [Cmpd 737, Omeprazole Sodium]
Compound Myofibroblast Cytotoxicity Activity: ++

CCCCCCCCOc1ccccc1C(=O)Nc1ccc(C(=O)OCC[N+](C)(CC)CC)cc1 [Cmpd 741, Otilonium Bromide]
Compound Myofibroblast Cytotoxicity Activity: +++++

Cc1ccccc1C(=O)O [Cmpd 742, o-Toluic acid]
Compound Myofibroblast Cytotoxicity Activity: ++

CN(C(=O)CN(CCO)CC(=O)N(C)C(C)(C)Cc1ccccc1)C(C)(C)Cc1ccccc1 [Cmpd 745, Oxethazaine]
Compound Myofibroblast Cytotoxicity Activity: +++++

CCN(CC)CC#CCOC(=O)C(O)(c1ccccc1)C1CCCCC1 (centres unmarked) [Cmpd 747, Oxybutynin]
Compound Myofibroblast Cytotoxicity Activity: ++

C1=N/C2=N/c3ccc(OCCN4CCCC4)c(c3)COC/C=C/COCc3cccc(c3)C(=C1)N2 [Cmpd 751, Pacritinib (SB1518)]
Compound Myofibroblast Cytotoxicity Activity: +++

CC(=O)c1c(C)c2cnc(Nc3ccc(N4CCNCC4)cn3)nc2n(C2CCCC2)c1=O.O=S(=O)(O)CCO [Cmpd 753, Palbociclib (PD0332991) Isethionate]
Compound Myofibroblast Cytotoxicity Activity: +++++

CCCCCCCCCCCCCCCC(=O)OC [Cmpd 754]
Compound Myofibroblast Cytotoxicity Activity: +++

NCCC(O)(P(=O)([O-])O)P(=O)([O-])O.[Na+].[Na+] [Cmpd 756, Pamidronate Disodium]
Compound Myofibroblast Cytotoxicity Activity: +++

C#CCN(C)Cc1ccccc1 [Cmpd 757, Pargyline (hydrochloride)]
Compound Myofibroblast Cytotoxicity Activity: ++

Fc1ccc([C@@H]2CCNC[C@H]2COc2ccc3c(c2)OCO3)cc1 [Cmpd 758, Paroxetine HCl]
Compound Myofibroblast Cytotoxicity Activity: +++

CS(=O)(=O)O.C[C@H]1COc2c(C3(N)CC3)c(F)cc3c(=O)c(C(=O)O)cn1c23 [Cmpd 760, Pazufloxacin mesylate]
Compound Myofibroblast Cytotoxicity Activity: +++

Cc1ccc(O)cc1 [Cmpd 762, p-Cresol]
Compound Myofibroblast Cytotoxicity Activity: ++

CC(=O)c1c(C)c2cnc(Nc3ccc(N4CCNCC4)cn3)nc2n(C2CCCC2)c1=O.Cl [Cmpd 763, PD 0332991 (Palbociclib) HCl]
Compound Myofibroblast Cytotoxicity Activity: ++++

OC1(c2ccc(Cl)c(C(F)(F)F)c2)CCN(CCCC(c2ccc(F)cc2)c2ccc(F)cc2)CC1 [Cmpd 765, Penfluridol]
Compound Myofibroblast Cytotoxicity Activity: +++

CC(C)(S)[C@@H](N)C(=O)O [Cmpd 766, Penicillamine]
Compound Myofibroblast Cytotoxicity Activity: ++

N=C(N)c1ccc(OCCCCCOc2ccc(C(=N)N)cc2)cc1.O=S(=O)(O)CCO.O=S(=O)(O)CCO [Cmpd 768, Pentamidine isethionate]
Compound Myofibroblast Cytotoxicity Activity: +++

CC(=O)CCCCn1c(=O)c2c(ncn2C)n(C)c1=O [Cmpd 769, Pentoxifylline]
Compound Myofibroblast Cytotoxicity Activity: ++++

C1CCc2nnnn2CC1 [Cmpd 770, Pentylenetetrazole]
Compound Myofibroblast Cytotoxicity Activity: ++++

OCCN1CCN(CCCN2c3ccccc3Sc3ccc(Cl)cc32)CC1 [Cmpd 773, Perphenazine]
Compound Myofibroblast Cytotoxicity Activity: +++++

COS(=O)(=O)[O-].C[n+]1c2ccccc2nc2ccccc21 [Cmpd 775, Phenazine methosulfate]
Compound Myofibroblast Cytotoxicity Activity: +++++

CC(COc1ccccc1)N(CCCl)Cc1ccccc1.Cl (centres unmarked) [Cmpd 776, Phenoxybenzamine HCl]
Compound Myofibroblast Cytotoxicity Activity: ++

O=C1NC(=O)C(c2ccccc2)(c2ccccc2)N1 [Cmpd 778, Phenytoin sodium]
Compound Myofibroblast Cytotoxicity Activity: ++

O=C(O)c1ccccc1C(=O)O [Cmpd 781, Phthalic acid]
Compound Myofibroblast Cytotoxicity Activity: ++

O=C(O)CCCNC(=O)c1cccnc1 [Cmpd 783, Pikamilone]
Compound Myofibroblast Cytotoxicity Activity: ++

CCc1ccc(CCOc2ccc(CC3SC(=O)NC3=O)cc2)nc1 (centres unmarked) [Cmpd 785, Pioglitazone HCl]
Compound Myofibroblast Cytotoxicity Activity: +++

O=C([O-])C[C@H](O)C[C@H](O)/C=C/c1c(C2CC2)nc2ccccc2c1-c1ccc(F)cc1.O=C([O-])C[C@H](O)C[C@H](O)/C=C/c1c(C2CC2)nc2ccccc2c1-c1ccc(F)cc1.[Ca+2] [Cmpd 786, Pitavastatin Calcium]
Compound Myofibroblast Cytotoxicity Activity: +++

Nc1cccc2c1C(=O)N(C1CCC(=O)NC1=O)C2=O (centres unmarked) [Cmpd 789, Pomalidomide (CC-4047)]
Compound Myofibroblast Cytotoxicity Activity: ++

C[n+]1ccccc1/C=N/O [Cmpd 792, Pralidoxime Iodide]
Compound Myofibroblast Cytotoxicity Activity: ++

CC(=O)Oc1cc2c(s1)CCN(C(C(=O)C1CC1)c1ccccc1F)C2.Cl (centres unmarked) [Cmpd 794, Prasugrel hydrochloride]
Compound Myofibroblast Cytotoxicity Activity: ++

COc1cc(NC(C)CCCN)c2ncccc2c1.O=P(O)(O)O.O=P(O)(O)O (centres unmarked) [Cmpd 796, Primaquine Diphosphate]
Compound Myofibroblast Cytotoxicity Activity: +++

CN1CCN(CCCN2c3ccccc3Sc3ccc(Cl)cc32)CC1 [Cmpd 797, Prochlorperazine]
Compound Myofibroblast Cytotoxicity Activity: +++++

CC(=O)[C@H]1CC[C@H]2[C@@H]3CCC4=CC(=O)CC[C@]4(C)[C@H]3CC[C@]12C [Cmpd 799, Progesterone]
Compound Myofibroblast Cytotoxicity Activity: +++

CCCOc1ccc2c(c1)CC[C@@H]1[C@@H]2CC[C@]2(C)[C@@H](OC)CC[C@@H]12 [Cmpd 800, Promestriene]
Compound Myofibroblast Cytotoxicity Activity: ++

CC(CN1c2ccccc2Sc2ccccc21)N(C)C (centres unmarked) [Cmpd 801, Promethazine HCl]
Compound Myofibroblast Cytotoxicity Activity: ++

O=C(O)c1ccc(O)c(O)c1 [Cmpd 804, Protocatechuic acid]
Compound Myofibroblast Cytotoxicity Activity: ++

CC(O)Cn1cnc2c1c(=O)n(C)c(=O)n2C (centres unmarked) [Cmpd 805, Proxyphylline]
Compound Myofibroblast Cytotoxicity Activity: ++

COCCCN1CCC(NC(=O)c2cc(Cl)c(N)c3c2OCC3)CC1 [Cmpd 806, Prucalopride]
Compound Myofibroblast Cytotoxicity Activity: +++

Cc1ncc(CO)c(CO)c1O [Cmpd 809, Pyridoxine]
Compound Myofibroblast Cytotoxicity Activity: ++

Oc1ccccc1O [Cmpd 810, Pyrocatechol]
Compound Myofibroblast Cytotoxicity Activity: ++

N.S=C(S)N1CCCC1 [Cmpd 811, Pyrrolidinedithiocarbamate ammonium]
Compound Myofibroblast Cytotoxicity Activity: ++

CC(C)(C)c1cc(NC(=O)Nc2ccc(-c3cn4c(n3)sc3cc(OCCN5CCOCC5)ccc34)cc2)no1 [Cmpd 815, Quizartinib (AC220)]
Compound Myofibroblast Cytotoxicity Activity: ++++

COc1cc(Nc2ncc(F)c(Nc3ccc4c(n3)N(COP(=O)([O-])[O-])C(=O)C(C)(C)O4)n2)cc(OC)c1OC.[Na+].[Na+] [Cmpd 816, R788 disodium]
Compound Myofibroblast Cytotoxicity Activity: ++

CC(=O)SCC(Cc1ccccc1)C(=O)NCC(=O)OCc1ccccc1 (centres unmarked) [Cmpd 817, Racecadotril]
Compound Myofibroblast Cytotoxicity Activity: ++

Cc1cn(-c2cc(NC(=O)c3ccc(C)c(Nc4nccc(-c5cnccn5)n4)c3)cc(C(F)(F)F)c2)cn1 [Cmpd 818, Radotinib(IY-5511)]
Compound Myofibroblast Cytotoxicity Activity: ++++

O=C(c1ccc(OCCN2CCCCC2)cc1)c1c(-c2ccc(O)cc2)sc2cc(O)ccc12 [Cmpd 819, Raloxifene HCl]
Compound Myofibroblast Cytotoxicity Activity: ++++

CO[C@H]1C[C@@H]2CC[C@@H](C)[C@@](O)(O2)C(=O)C(=O)N2CCCC[C@H]2C(=O)O[C@H]([C@H](C)C[C@@H]2CC[C@@H](O)[C@H](OC)C2)CC(=O)[C@H](C)/C=C(\C)[C@@H](O)[C@@H](OC)C(=O)[C@H](C)C[C@H](C)/C=C/C=C/C=C/1C [Cmpd 820, Rapamycin (Sirolimus)]
Compound Myofibroblast Cytotoxicity Activity: ++++

C#CCN[C@@H]1CCc2ccccc21 [Cmpd 821, Rasagiline]
Compound Myofibroblast Cytotoxicity Activity: ++

CCOc1cc(CC(=O)N[C@@H](CC(C)C)c2ccccc2N2CCCCC2)ccc1C(=O)O [Cmpd 826, Repaglinide]
Compound Myofibroblast Cytotoxicity Activity: +++

O=c1ccc2[n+]([O-])c3ccc(O)cc3oc-2c1 [Cmpd 827, Resazurin sodium salt]
Compound Myofibroblast Cytotoxicity Activity: ++
